# Like-named read-outs stand apart in the source and are kept apart here.
# Tests used:
# [1] = test system: hypothermia induced by reserpine; experiment: Anti-reserpine activity: antagonistic effect on hypothermia induced by reserpine; assay type: in vivo, male STD-ddY strain mice; details: p.o.; for ED50: Mus musculus, po, 4 h, reserpine 5 mg/kg i.p.
# Procedure: Pharmacological experiments have been done on the compound of the present invention, some known and novel analogous compounds and an antidepressant on the market, as mentioned below. In the experiments, ED50 was calculated by Litchfield-Wilcoxon method. This effect was examined according to the method of […]. 2, 725 (1963)], using male STD-ddY strain mice weighing 20-25 g. […] Rectal temperature of each mouse was measured 4 hours later with a thermister (Shibaura Electric, BMG III-130).
# [2] = test system: methamphetamine-induced locomotor activity; experiment: Anti-methamphetamine effect (inhibitory effect on methamphetamine-induced locomotor activity); assay type: in vivo, male STD-ddY strain mice; details: for ED50: Mus musculus, ip, read-out: Anti-methamphetamine ED50; for Antagonizing methamphetamine-induced locomotor activity (in words): i.p.
# Procedure: (§1) Pharmacological experiments have been done on the compound of the present invention, some known and novel analogous compounds and an antidepressant on the market, as mentioned below. In the experiments, ED50 was calculated by Litchfield-Wilcoxon method.
# Male STD-ddY strain mice, weighing 20-25 g, were used in groups of 10 mice each. Groups of mice were injected intraperitoneally with 4 mg/kg of methamphetamine, and 30 minutes later each test compound was injected intraperitoneally in 3 different doses. One hour after the injection of methamphetamine, locomotor activity of each mouse was measured for 10 minutes with an Animex locomotor activity meter.
# [3] = test system: spontaneous and methamphetamine-induced locomotor activities; experiment: Neuroleptics-like activity, overall (Test 2); assay type: in vivo, male STD-ddY strain mice; details: overall conclusion
# [4] = test system: spontaneous locomotor activity; experiment: Inhibitory effect on spontaneous locomotor activity; assay type: in vivo, male STD-ddY strain mice; details: for ED50: Mus musculus, po, read-out: Spontan. locomotor ED50; for Inhibition of spontaneous locomotion (in words): p.o.
# Procedure: as §1
# Male mice of STD-ddY strain, weighing 20-25 g, were used in groups of 5 mice each. Each test compound was given orally to the mice in 5 different doses, and 2 hours later the spontaneous locomotor activity of each mouse was measured for 3 minutes by means of an Animex locomotor activity meter (made by Farad Electronics). ED50 was calculated for each compound. The ED50 means the dose of test compound in which the locomotor activity was reduced to 50% of that of control group receiving saline.
# [5] = test system: catalepsy induced by reserpine; experiment: Anti-reserpine activity: antagonistic effect on catalepsy induced by reserpine; assay type: in vivo, male STD-ddY strain mice; details: for ED50: Mus musculus, po, 1 h
# Procedure: In the experiments, ED50 was calculated by Litchfield-Wilcoxon method. Male STD-ddY strain mice, weighing […], were used in groups of 10 mice each. […] The mice were tested for catalepsy 1 hour after the administration of test compounds. ED50 was calculated for each compound.
# antidepressant activity = experiment: Antidepressant activity, overall (Test 1); assay type: in vivo, male STD-ddY strain mice; male Wistar strain rats; details: for Antidepressant activity (in words): overall conclusion
# Procedure: This effect was examined according to the method of […]. 2, 725 (1963)], using male STD-ddY strain mice weighing 20-25 g. […] Rectal temperature of each mouse was measured 4 hours later with a thermister (Shibaura Electric, BMG III-130). […] Male STD-ddY strain mice, weighing […], were used in groups of 10 mice each. […] The mice were tested for catalepsy 1 hour after the administration of test compounds. ED50 was calculated for each compound. […] Male STD-ddY strain mice, weighing 20-25 g, were used in groups of 10 mice each. […] Two hours after the tetrabenazine injection, the degree of eyelid closure (ptosis) was assessed on the basis of macroscopic scoring (0: no closure of the eyelid, 1: 1/4 closure, 2: 2/4 closure, 3: 3/4 closure and 4: complete closure), essentially according to the method of P. A. J. Janssen [Arzneim. Forsch. 15, 104 (1965)]. ED50 was calcuated for each compound. […] Male Wistar strain rats, weighing 240-260 g, which had developed mouse-killing behavior after ablation of the olfactory bulb according to the method of Z. P. Horovitz [Int. J. Neuropharmacol. 5, 405 (1966)], were used in groups of 15 animals each. […] ED50 was calculated for each compound.
# [6] = test system: ptosis induced by tetrabenazine; experiment: Anti-tetrabenazine activity: antagonistic effect on ptosis induced by tetrabenazine; assay type: in vivo, male STD-ddY strain mice; details: Mus musculus, po; tetrabenazine 70 mg/kg i.p.; Table 2
# Procedure: Pharmacological experiments have been done on the compound of the present invention, some known and novel analogous compounds and an antidepressant on the market, as mentioned below. In the experiments, ED50 was calculated by Litchfield-Wilcoxon method. Male STD-ddY strain mice, weighing 20-25 g, were used in groups of 10 mice each. […] Two hours after the tetrabenazine injection, the degree of eyelid closure (ptosis) was assessed on the basis of macroscopic scoring (0: no closure of the eyelid, 1: 1/4 closure, 2: 2/4 closure, 3: 3/4 closure and 4: complete closure), essentially according to the method of P. A. J. Janssen [Arzneim. Forsch. 15, 104 (1965)]. ED50 was calcuated for each compound.
# [7] = test system: mouse-killing behavior of olfactory bulb-ablated rats; experiment: Suppressing effect on mouse-killing behavior in olfactory bulb-ablated rats; assay type: in vivo, male Wistar strain rats; details: Rattus norvegicus, ip, 1 h, read-out: Suppressing effect on mouse-killing behavior of olfactory bulb-ablated rats, ED50
# Procedure: as §1
# Male Wistar strain rats, weighing 240-260 g, which had developed mouse-killing behavior after ablation of the olfactory bulb according to the method of Z. P. Horovitz [Int. J. Neuropharmacol. 5, 405 (1966)], were used in groups of 15 animals each. Each test compound was given intraperitoneally to the rats in 6 different doses, and 1 hours later the rats were each tested as to whether they killed a mouse or not. ED50 was calculated for each compound.
# [8] = test system: brain 3-methoxy-4-hydroxyphenylethylene glycol sulfate (MOPEG-SO4); experiment: Effect on brain monoamine metabolites: MOPEG-SO4; assay type: in vivo, male Wistar strain rats; details: 100 mg/kg p.o.; for Brain MOPEG-SO4, % of control: *P<0.01
# Procedure: (§2) Each test compound was given orally to the rats in a dose of 100 mg/kg and, 1, 3 and 6 hours later the rats were sacrificed. […] The concentrations of the monoamine metabolites were calculated in terms of ng/g wet brain tissue and expressed as % of the concentrations of controls receiving saline.
# [9] = test system: brain 5-hydroxyindoleacetic acid (5-HIAA); experiment: Effect on brain monoamine metabolites: 5-HIAA; assay type: in vivo, male Wistar strain rats; details: 100 mg/kg p.o., *P<0.01
# Procedure: as §2
# tremorine-induced tremor = experiment: Anti-tremorine activity (antagonistic effect on tremorine-induced tremor); assay type: in vivo, male STD-ddY strain mice; details: Mus musculus, po, read-out: Anti-tremorine activity ED50
# Procedure: as §1
# Male STD-ddY strain mice, weighing 20-25 g, were used in groups of 5 mice each. Each test compound was given orally to the mice in 5 different doses, and 2 hours later 20 mg/kg of tremorine was injected intraperitoneally. Half an hour after the injection of tremorine, each mouse was examined macroscopically for tremor severity, according to the rating scale with the scores 0, 1, 2, and 3 depending on the severity. ED50 was calculated for each compound. The ED50 means the dose of test compound in which the tremorine-induced tremor was inhibited by 50% in severity.
# [10] = test system: brain homovanillic acid (HVA); experiment: Effect on brain monoamine metabolites: HVA; assay type: in vivo, male Wistar strain rats; details: 100 mg/kg p.o.; for Brain HVA, % of control: *P<0.01
# Procedure: as §2
# [11] = Table 1, read-out: Anti-reserpine activity ED50, hypothermia
# [12] = p.o., reserpine 5 mg/kg i.p., Table 1, read-out: Anti-reserpine activity ED50, catalepsy
# [13] = Table 2, read-out: Anti-reserpine ED50, hypothermia
# [14] = p.o., reserpine 5 mg/kg i.p., Table 2, read-out: Anti-reserpine ED50, catalepsy
SMILES,"ED50 [1, 11] [mg/kg]",ED50 ([2]; methamphetamine 4 mg/kg i.p.) [mg/kg],Antagonizing methamphetamine-induced locomotor activity (in words) [2],Neuroleptics-like activity (in words) [3],ED50 ([4]; 2 hours after dosing) [mg/kg],Inhibition of spontaneous locomotion (in words) [4],"ED50 [1, 13] [mg/kg]",ED50 [6] [mg/kg],Antidepressant activity (in words) (antidepressant activity),"ED50 [5, 14] [mg/kg]",also measured
"CN1CCN(c2cc(-c3ccccc3)c3cc(Cl)ccc3n2)CC1.Cl.Cl [Compound 1, 6-Chloro-2-(4-methyl-1-piperazinyl)-4-phenylquinoline dihydrochloride]",30.8,> 30,devoid of both activities,not seen,> 200,devoid of both activities,,,,,"Activity in antagonizing reserpine hypothermia relative to compound A ([1]; versus compound A): 5 times less active; ED50 [5, 12]: 20 mg/kg; Activity in antagonizing reserpine catalepsy relative to compound A ([5]; versus compound A, p.o.): 13 times less active"
"Clc1ccc2nc(N3CCN(c4ccccc4)CC3)cc(-c3ccccc3)c2c1 [Compound 2, 6Chloro-2-(4-phenyl-1-piperazinyl)-4-phenylquinoline]",> 100,> 30,devoid of both activities,not seen,> 200,devoid of both activities,,,,,"Anti-reserpine activity (in words) (antidepressant activity; hypothermia and catalepsy, p.o.): devoid of the anit-reserpine activity; ED50 [5, 12]: > 100 mg/kg"
"CN1CCN(c2cc(-c3ccccc3)c3ccccc3n2)CC1 [Compound 3, 2-(4-Methyl-1-piperazinyl)-4-phenylquinoline]",,12.9,somewhat less potent,comparable to compound A,56.4,as potent as compound A,13.9,10.4,much less potent than the latter,4.7,
"CCCN1CCN(c2cc(-c3ccccc3)c3ccccc3n2)CC1.Cl.Cl [Compound 4, 2-(4-n-Propyl-1-piperazinyl)-4-phenylquinoline dihydrochloride]",,13.2,somewhat less potent,,62.2,as potent as compound A,13.6,8.2,inferior to compound A,4.4,
"CCCCN1CCN(c2cc(-c3ccccc3)c3ccccc3n2)CC1.O=C(O)/C=C\C(=O)O.O=C(O)/C=C\C(=O)O [Compound 5, 2-(4-n-Butyl-1-piperazinyl)-4-phenylquinoline dimaleate]",,16.4,somewhat less potent,,50.6,as potent as compound A,13.7,29.9,inferior to compound A,6.3,
"CN(C)CCCN1c2ccccc2CCc2ccccc21 [Compound 6, 5-(3-dimethylaminopropyl)-10,11-dihydro-5H-dibenz[b,f]azepine]",21.5,,devoid of both activities,not seen,,devoid of both activities,21.5,4.9,,,"ED50 [7]: 5.5 mg/kg; Brain MOPEG-SO4 concentration / noradrenaline turnover (in words) [8]: significant decrease in brain MOPEG-SO4 concentration; Brain MOPEG-SO4, % of control ([8]; 1 hour): 87 % of control; Brain MOPEG-SO4, % of control ([8]; 3 hours): 80 % of control; Brain MOPEG-SO4, % of control ([8]; 6 hours): 70 % of control; ED50 [2]: > 30 mg/kg; Brain 5-HIAA, % of control ([9]; 1 hour): 88 % of control; Brain 5-HIAA, % of control ([9]; 3 hours): 84 % of control; Brain 5-HIAA, % of control ([9]; 6 hours): 73 % of control; ED50 (tremorine-induced tremor): 48.3 mg/kg; Brain HVA concentration / dopamine turnover (in words) [10]: devoid of such activity; Brain HVA, % of control ([10]; 1 hour): 110 % of control; Brain HVA, % of control ([10]; 3 hours): 98 % of control; ED50 ([4]; 2 h): > 200 mg/kg; ED50 ([5]; read-out: Anti-reserpine ED50, catalepsy): 38.3 mg/kg; ED50 ([5]; read-out: Anti-reserpine activity ED50, catalepsy): 38.3 mg/kg"
"CN(C)CCCN1c2ccccc2Sc2ccc(Cl)cc21 [Compound 7, 2chloro-10-(3-dimethylaminopropyl)phenothiazine]",,,,,,,,,,,ED50 [2]: 1 mg/kg; ED50 ([4]; 2 h): 7.4 mg/kg
"OC(CCN1CCCCC1)(c1ccccc1)C1CC2C=CC1C2 (stereo not shown) [Compound 8, 5-norbornen-2-yl-phenyl-1-piperidinepropanol]",,,,,,,,,,,ED50 (tremorine-induced tremor): 11.4 mg/kg
